Where a name gives a salt, the structure may show the parent alone.
Key:
[1] = molecular target: T1, human D3 receptor (Homo sapiens, UniProt P35462); experiment: inhibition of [^3 H]spiperone binding to the human D3 receptor; settings: read-out: Dopamine Receptor Binding (Ki, nM) D3
T1 construct: expressed in transfected cells
Protocol: (§1) Compounds of Formula I were tested for their ability to bind to dopamine receptors as measured by their inhibition of [^3 H]spiperone binding to the human D2 and D3 receptors in an assay described by MacKenzie R. G., VanLeeuwen D., Pugsley T. A., et al., "Characterization of the human dopamine D3 receptor expressed in transfected cell lines." Eur. J. Pharmacol.-Mol. Pharmacol., 1994;266:79-85; for the human D4 dopamine receptor in an assay described by Pugsley T. A., David M. D., Akunne H. C., et al., "CI-1007, a dopamine partial agonist and potential antipsychotic agent. I. Neurochemical Effects." J. Pharmacol. Exp. Ther., 1995;274:898-911; and for ability to block the action of an agonist in a [^3 H]thymidine incorporation assay described by Lajiness N. E., Chio C. L., Huff R. M., "D2 dopamine receptor stimulation of mitogenesis in transfected Chinese hamster ovary cells: relationship to dopamine stimulation of tyrosine phosphorylations." J. Pharmacol. Exp. Ther., 1993;267:1573-81. This test determines the agonist/antagonist character of a compound by measuring [^3 H]thymidine uptake in Chinese hamster ovary (CHO) pro-5 cells expressing the dopamine D4 receptor. Agonists, such as quinpirole, promote cell growth and subsequent [^3 H]thymidine incorporation, while antagonists block the action of agonists. […] The above articles are incorporated herein by reference for their assay methodology.

[2] = molecular target: T2, human D2 receptor (Homo sapiens, UniProt P14416); experiment: inhibition of [^3 H]spiperone binding to the human D2 receptor; settings: read-out: Dopamine Receptor Binding (Ki, nM) D2
T2 construct: expressed in transfected cells
T2 sequence (P14416 whole entry): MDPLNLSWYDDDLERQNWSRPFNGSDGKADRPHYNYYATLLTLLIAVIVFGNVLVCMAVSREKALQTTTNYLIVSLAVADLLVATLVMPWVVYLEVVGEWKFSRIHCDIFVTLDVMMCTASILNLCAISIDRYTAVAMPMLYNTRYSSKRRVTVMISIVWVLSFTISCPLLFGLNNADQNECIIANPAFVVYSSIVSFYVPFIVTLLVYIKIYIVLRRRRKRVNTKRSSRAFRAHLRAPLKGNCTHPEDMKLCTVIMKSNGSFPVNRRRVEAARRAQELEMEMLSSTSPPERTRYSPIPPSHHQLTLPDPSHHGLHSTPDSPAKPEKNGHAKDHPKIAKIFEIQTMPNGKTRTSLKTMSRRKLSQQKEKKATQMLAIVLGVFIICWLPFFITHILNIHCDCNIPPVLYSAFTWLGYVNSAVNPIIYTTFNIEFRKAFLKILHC
Protocol: as §1

[3] = molecular target: T3, human D4 dopamine receptor (Homo sapiens, UniProt P21917); experiment: inhibition of [^3 H]spiperone binding to the human D4 dopamine receptor
T3 construct: expressed in transfected cells
T3 sequence (P21917 1-419): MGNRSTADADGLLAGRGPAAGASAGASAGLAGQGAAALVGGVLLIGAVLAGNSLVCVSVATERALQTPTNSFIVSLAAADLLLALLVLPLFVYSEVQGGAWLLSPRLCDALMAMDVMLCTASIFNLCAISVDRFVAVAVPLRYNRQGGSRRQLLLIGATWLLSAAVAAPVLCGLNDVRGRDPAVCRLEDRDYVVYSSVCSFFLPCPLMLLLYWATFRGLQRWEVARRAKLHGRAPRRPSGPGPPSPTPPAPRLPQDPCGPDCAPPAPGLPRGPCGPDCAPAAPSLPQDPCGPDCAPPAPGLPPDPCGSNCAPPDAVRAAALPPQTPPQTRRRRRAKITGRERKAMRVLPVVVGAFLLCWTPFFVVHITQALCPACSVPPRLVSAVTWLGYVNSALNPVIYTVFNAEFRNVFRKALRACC
Protocol: as §1

[4] = system: dopamine D4 receptor; settings: D4 vs D2; cited from earlier work
[5] = system: schizophrenia; settings: in vivo; cited from earlier work

T1 sequence (P35462 whole entry): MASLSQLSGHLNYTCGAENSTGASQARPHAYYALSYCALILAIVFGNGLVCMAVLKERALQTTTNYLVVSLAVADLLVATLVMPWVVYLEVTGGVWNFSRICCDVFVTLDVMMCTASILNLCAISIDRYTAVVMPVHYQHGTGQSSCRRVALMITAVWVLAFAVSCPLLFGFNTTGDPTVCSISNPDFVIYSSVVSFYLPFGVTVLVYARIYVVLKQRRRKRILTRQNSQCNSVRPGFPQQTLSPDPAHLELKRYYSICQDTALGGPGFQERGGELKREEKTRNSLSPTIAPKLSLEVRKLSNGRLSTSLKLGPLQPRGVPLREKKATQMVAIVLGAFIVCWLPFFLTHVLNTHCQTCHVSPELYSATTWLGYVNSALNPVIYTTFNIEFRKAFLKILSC

| Ki [1] [nM] | Ki [2] [nM] | Ki [3] [nM] | Compound | other results |
| --- | --- | --- | --- | --- |
| 591 | > 5880 | 6.87 | COc1ccc2c3c(c(=O)oc2c1)CN(CCc1ccccc1)CC3 [Example 22, 8-Methoxy-3-phenethyl-1,2,3,4-tetrahydro-chromeno[3,4-c]pyridin-5-one] | – |
| – | – | 32.6 | COc1cc2oc(=O)c3c(c2cc1OC)CCN(CCc1ccccc1)C3 [Example 23, 8,9-Dimethoxy-3-phenethyl-1,2,3,4-tetrahydro-chromeno[3,4-c]pyridin-5-one hydrochloride] | – |
| – | – | 10.6 | Cc1ccc2c3c(c(=O)oc2c1)CN(Cc1ccc(Cl)cc1)CC3 [Example 20, 3-(4-Chloro-benzyl)-8-methyl-1,2,3,4-tetrahydro-chromeno[3,4-c]pyridin-5-one] | – |
| 338 | – | 3.59 | Cc1ccc2c3c(c(=O)oc2c1)CN(Cc1ccccc1)CC3 [Example 17, 3-Benzyl-8-methyl-1,2,3,4-tetrahydro-chromeno[3,4-c]pyridin-5-one] | – |
| 2610 | > 5880 | 33.9 | COc1ccc2c3c(c(=O)oc2c1)CN(Cc1ccccc1Cl)CC3 [Example 16, 3-(2-Chloro-benzyl)-8-methoxy-1,2,3,4-tetrahydro-chromeno[3,4-c]pyridin-5-one] | – |
| – | – | 16.2 | COc1ccc2c3c(c(=O)oc2c1OC)CN(Cc1ccccc1)CC3 [Example 24, 3-Benzyl-7,8-dimethoxy-1,2,3,4-tetrahydro-chromeno[3,4-c]pyridin-5-one] | – |
| – | 3980 | 21.3 | COc1ccc2c3c(c(=O)oc2c1)CN(Cc1cccnc1)CC3 [Example 18, 8-Methoxy-3-pyridin-3-ylmethyl-1,2,3,4-tetrahydro-chromeno[3,4-c]pyridin-5-one] | – |
| – | – | 48 | COc1ccc2c3c(c(=O)oc2c1)CN(Cc1ccccn1)CC3 [Example 19, 8-Methoxy-3-pyridin-2-ylmethyl-1,2,3,4-tetrahydro-chromeno[3,4-c]pyridin-5-one] | – |
| – | > 5880 | 8.46 | COc1cc2oc(=O)c3c(c2cc1OC)CCN(Cc1ccc(Cl)cc1)C3 [Example 21, 3-(4-Chloro-benzyl)-8,9-dimethoxy-1,2,3,4-tetrahydro-chromeno[3,4-c]pyridin-5-one] | – |

Further lines, the molecule ahead of its results:

| Compound | Ki [1] [nM] | Ki [2] [nM] | Ki [3] [nM] | other results |
| --- | --- | --- | --- | --- |
| COc1ccc2c3c(c(=O)oc2c1)CN(Cc1ccc(Cl)cc1)CC3 [Example 9, 3-(4-Chloro-benzyl)-8-methoxy-1,2,3,4-tetrahydro-chromeno[3,4-c]pyridin-5-one] | 11700 | > 5880 | 7.3 | – |
| COc1ccc2c3c(c(=O)oc2c1)CN(Cc1ccccc1)CC3 [Example 1, 3-Benzyl-8-methoxy-1,2,3,4-tetrahydro-chromeno[3,4-c]-pyridin-5-one] | 60 | – | 1.5 | – |
| COc1ccc2c3c(c(=O)oc2c1)CN(Cc1ccc(C(F)(F)F)cc1)CC3 [Example 13, 8-Methoxy-3-(4-trifluoromethyl-benzyl)-1,2,3,4-tetrahydro-chromeno[3,4-c]pyridin-5-one] | 966 | – | 8.18 | – |
| COc1ccc2c3c(c(=O)oc2c1)CN(Cc1ccc(Cl)c(Cl)c1)CC3 [Example 4, 3-(3,4-Dichloro-benzyl)-8-methoxy-1,2,3,4-tetrahydro-chromeno[3,4-c]pyridin-5-one] | – | – | 60.9 | – |
| COc1ccc(CN2CCc3c(c(=O)oc4cc(OC)ccc34)C2)cc1 [Example 14, 8-Methoxy-3-(4-methoxy-benzyl)-1,2,3,4-tetrahydro-chromeno[3,4-c]pyridin-5-one] | – | – | 84.3 | – |
| COc1ccc2c3c(c(=O)oc2c1)CN(Cc1ccnc2ccccc12)CC3 [Example 11, 8-Methoxy-3-quinolin-4-ylmethyl-1,2,3,4-tetrahydro-chromeno[3,4-c]pyridin-5-one] | – | – | 34.3 | – |
| COc1ccc2c3c(c(=O)oc2c1)CN(Cc1cc(OC)c(OC)c(OC)c1)CC3 [Example 12, 8-Methoxy-3-(3,4,5-trimethoxy-benzyl)-1,2,3,4-tetrahydro-chromeno[3,4-c]pyridin-5-one] | 3670 | 2670 | 21.3 | – |
| COc1ccc2c3c(c(=O)oc2c1)CN(Cc1ccc(C)cc1)CC3 [Example 3, 8-Methoxy-3-(4-methyl-benzyl)-1,2,3,4-tetrahydro-chromeno[3,4-c]pyridin-5-one] | 491 | – | 2.6 | – |
| COc1ccc2c3c(c(=O)oc2c1)CN(Cc1cccc(Cl)c1)CC3 [Example 15, 3-(3-Chloro-benzyl)-8-methoxy-1,2,3,4-tetrahydro-chromeno[3,4-c]pyridin-5-one] | 2630 | – | 17.2 | – |
| CN1CCN(C2=Nc3cc(Cl)ccc3Nc3ccccc32)CC1 [clozapine] | – | – | – | higher affinity for the dopamine D4 receptor than for the D2 receptor [4]: 10 fold; improvement of positive and negative symptoms of schizophrenia [5]: improves both the positive and negative symptoms of schizophrenia; incidence of extrapyramidal side effects [5]: low incidence of extrapyramidal side effects |
| COc1cc2oc(=O)c3c(c2cc1OC)CCN(Cc1ccccc1)C3 [Example 6, 3-Benzyl-8,9-dimethoxy-1,2,3,4-tetrahydro-chromeno[3,4-c]pyridin-5-one] | – | – | 59 | – |
| Cc1c(O)cc2oc(=O)c3c(c2c1O)CCN(Cc1ccccc1)C3 [Example 8, 3-Benzyl-8,10-dihydroxy-9-methyl-1,2,3,4-tetrahydro-chromeno[3,4-c]pyridin-5-one hydrochloride] | – | – | 44.3 | – |
| Cc1cc2oc(=O)c3c(c2cc1O)CCN(Cc1ccccc1)C3 [Example 7, 3-Benzyl-9-hydroxy-8-methyl-1,2,3,4-tetrahydro-chromeno[3,4-c]pyridin-5-onehydrochloride] | 295 | 1900 | 8.01 | – |
| COc1ccc2c3c(c(=O)oc2c1)CN(Cc1ccc([N+](=O)[O-])cc1)CC3 [Example 5, 8-Methoxy-3-(4-nitro-benzyl)-1,2,3,4-tetrahydro-chromeno[3,4-c]pyridin-5-one] | – | > 5880 | 7.53 | – |
| COc1ccc2c3c(c(=O)oc2c1)CN(Cc1ccncc1)CC3 [Example 10, 8-Methoxy-3-pyridin-4-ylmethyl-1,2,3,4-tetrahydro-chromeno[3,4-c]pyridin-5-one] | – | – | 73.5 | – |

Source: US5760050A, “Antipsychotic method utilizing certain tetrahydrochromeno[3,4-c]pyridin-5-ones” (Warner-Lambert Company, priority 1997, dated 1998)
